Columns and labels:
[1] = test system: Colon 38 tumours; test: Tumour growth delay, Colon 38 tumours in mice, combination with DMXAA; type: in vivo; settings: for tumour volumes at 21 days after treatment compared with DMXAA alone: FIG. 2; for inhibition of tumour growth compared with DMXAA alone: 100 mg/kg i.p. co-administered with DMXAA 25 mg/kg, FIG. 1A
From the text: Mice (C57B1/6 bred at the Animal Resources Unit, University of Auckland, New Zealand) were implanted with Colon 38 tumours, obtained originally from the Mason Research Institute (Auckland, New Zewaland) by transferring 1 mm^3 pieces of the tumour into a subcutaneous opening in the left flank of anaesthetized mice. The mice with tumours were used for growth delay experiments when tumours had reached approximately 3-5 mm in diameter. Mice were divided into 10 groups, an untreated control group, a group treated intraperitoneally (i.p.) with DMXAA (5,6-dimethylxanthenone-4-acetic acid, synthesized at the Auckland Cancer Society Research Centre—ACSRC (Auckland, New Zealand) at 25 mg/kg only, and 8 groups treated with DMXAA together with the hydrolytic thalidomide metabolites PG, PiG, CG also synthesized at the ACSRC as previously described (Lu et al, 2003), or thalidomide at 100 mg/kg, or together with CG or thalidomide at 20 mg/kg or 4 mg/kg. DMXAA was dissolved in saline at 2.5 mg/ml and injected i.p. into mice in a volume of 10 μl/g body weight. Thalidomide, PG, PiG and CG were dissolved in dimethylsulphoxide at 40, 8 or 1.6 mg/ml (for dosages of 100, 20, 4 mg/kg respectively) and injected i.p. in a volume of 2.5 μl/g body weight. Tumours were measured 2-3 times weekly after treatment and tumour volumes were calculated as 0.52×a^2×b, where a and b are the minor and major axes of the tumour. The arithmetic means and standard errors were calculated for each point, counting cured animals as having zero tumour volume, and expressed as fractions of the pre-treatment volume. Growth delay was determined as the difference in the number of days required for the tumour to reach four times the pre-treatment volume.

[2] = test system: TNF; test: Modulation of TNF production in Colon 38 tumour-bearing mice (serum and tumour, ELISA); type: in vivo; settings: 3 h
Procedure: Mice with Colon 38 tumours, approximately 5-7 mm in diameter, were divided into groups of 5. One group was untreated. Other groups were treated with DMXAA (25 mg/kg) alone; DMXAA (25 mg/kg)+thalidomide (100 mg/kg), DMXAA (25 mg/kg)+PG (100 mg/kg), DMXAA (25 mg/kg)+PiG (100 mg/kg), DMXAA (25 mg/kg)+CG (100 mg/kg), DMXAA (25 mg/kg)+thalidomide (20 mg/kg), DMXAA (25 mg/kg)+CG (20 mg/kg), and thalidomide, PG, PiG or CG only at 100 and 200 mg/kg. Three hours after treatment, mice were anaesthetized with halothane (NZ Pharmacology Ltd., Christchurch, New Zealand), and blood was collected from the ocular sinus and tumours were excised. Blood was coagulated overnight at 4° C., and then centrifuged for 30 min at 2,000×g and 4° C., and the serum was removed and stored at −80° C. until use. Tumour tissues were weighed and homogenized in 1.5 ml α-minimal essential medium (Gibco, Grand Island, N.Y., USA). The homogenates were centrifuged (2,000×g, 30 min, 4° C.) and supernatant was removed and re-centrifuged (14,000×g, 30 min, 4° C.). The final supernatants were removed and kept at −80° C. until use. TNF levels in serum and supernatants derived from tumour homogenates were assayed for TNF as described in section 4 (below).
(§1) TNF was assayed using a commercially available ELISA kit (OpEIA human or murine TNF kit, PharMingen, San Diego, Calif., USA), according to the manufacturer's instructions. Briefly, samples (100 μl/well) in duplicate together with a serial dilution of TNF (31.25-2000 pg/ml) for the standard curve, were added to flat-bottom 96-well plates pre-coated with immobilised monoclonal anti-TNF antibody and incubated at room temperature for 2 h. The wells were then washed, biotinylated polyclonal antibody to TNF was added, followed by peroxidase-labelled streptavidin, and incubated at room temperature for 1 h. The wells were washed again, and the substrate, tetramethylbenzidine and hydrogen peroxide was added and after 10 min the reaction was stopped with 2 N sulphuric acid. The absorbance at 450 nm was determined using a microtitre plate reader.

[3] = test system: TNF; test: LPS-induced TNF production by HPBL in culture; type: cell-based, human; settings: HPBL, LPS 100 pg/ml, 12 h; all concentrations tested (PG, PiG: 1, 5, 25 μg/ml); FIG. 5
Procedure: Blood (20 ml) each from seven healthy volunteers was collected into heparinized tubes, and was overlayed on top of 10 ml of Ficoll-Paque Plus (Amersham Biosciences AB, Uppsala, Sweden) in 50 ml Falcon polypropylene conical tubes (Becton Dickson Labware, Franklin Lakes, N.J.). The tubes were centrifuged for 30 min at 300×g and 4° C., and the layer of cells was removed and re-suspended at 1×10^6 cells/ml in A-MEM medium supplemented with foetal bovine serum (Moregate BioTech Ltd, Hamilton, New Zealand) (10% v/v), streptomycin sulphate (100 μg/ml) and penicillin-G (100 units/ml) (Sigma, St Louis, Mo., USA). Cells were added to a 24-well plate (Nunc, Kamstrup, Roskilde, Denmark) with LPS (Escherichia coli serotype 055:B5; Sigma, St. Louis, Mo., USA) plus thalidomide or CG at 0.04, 0.2, 1, 5, 25 & 100 μg/ml; or PG or PiG at 1, 5 & 25 μg/ml in a final volume of 1 ml. Wells containing cells only and cells plus LPS only were included as controls. After 12 hours of incubation, supernatants were removed and assayed immediately for TNF as described in section 4.
as §1

[4] = test system: ECV304 cells; test: Inhibition of tube formation of ECV304 cells in Matrigel; type: cell-based, human
Procedure: Each well in a 24-well plate was coated with 300 μl of Matrigel (Becton Dickinson, San Jose, Calif., USA) which was allowed to solidified at 37° C. for 1 h. […] After 15-18 h of incubation at 37° C. at 5% CO2, the culture supernatant was aspirated. The cells were fixed and stained using Diff-Quick staining kit (Dade AG, Dudingen, Switzerland) according to the manufacturer's instructions. After removal of the staining solution the stained cells in each well were photographed along with a measuring ruler placed at the bottom edge of the photographing field (Olympus Camedia C-5050 professional digital camera, Olympus Optical, Tokyo, Japan). The total length of the tubes formed in the photographs was measured and divided by the area of the field (mm/mm^2).

[5] = test system: ECV304 cells; test: MTT cytotoxicity assay; type: cell-based, human; settings: 18 h, 2-250/g/ml, vs untreated or DMSO-treated cultures
Procedure: The 3-(4,5-dimethylthiazol-2-yl)-2,5-diphenyl tetrazolium bromide (MTT) assay, which measures mitochondrial metabolic activity, was used to determine cell viability (Mosmann, 1983). Cells (4×10^3/well) were cultured with various concentrations of thalidomide, CG, PG and PiG in a final volume of 100 μl M199 medium (Gibco, Grand Island, N.Y., USA) supplemented with 10% foetal bovine serum ([…] streptomycin sulphate and 100 units/ml penicillin-G (Sigma, St Louis, Calif., USA) in flat-bottomed 96-well plates at 37° C. at 5% CO2 for 18 h. At the end of the incubation period, 10 μl of MTT (Sigma, St. Louis, Mo., 5 mg/ml in PBS) was added to each well, and the cells were further incubated for 2 h. The supernatants were then removed and the formazan crystals in the cells were dissolved by the addition of 100 μl of DMSO per well, and the absorbance at 590 nm was read using a plate reader. Each concentration of drug was tested in triplicate wells, and the mean ±standard error of the mean (SEM) was calculated.

[6] = 100 mg/kg co-administered with DMXAA 25 mg/kg
[7] = 100 mg/kg co-administered with DMXAA 25 mg/kg, FIG. 3A
[8] = 100 mg/kg co-administered with DMXAA 25 mg/kg, FIG. 3B
[9] = all concentrations tested, FIG. 6

Row | Structure (SMILES) | tumour volumes at 21 days after treatment compared with DMXAA alone [1, 6] | inhibition of tumour growth compared with DMXAA alone [1] | effect on DMXAA-induced serum TNF level [2, 7] | effect on DMXAA-induced tumour TNF level [2, 8] | effect on LPS-induced TNF production [3] | inhibition of tube formation [4, 9] | toxicity (cell viability, MTT) [5] | increase in serum TNF activity above control untreated mice ([2]; DMXAA alone 25 mg/kg, FIG. 3A) [fold] | increase in tumour TNF activity above control untreated mice ([2]; DMXAA alone 25 mg/kg, FIG. 3B) [fold] | potentiation of DMXAA-induced anti-tumour effects ([1]; 4 mg/kg co-administered with DMXAA 25 mg/kg, FIG. 1C) | tumour volumes at 21 days after treatment compared with DMXAA alone ([1]; 4 mg/kg co-administered with DMXAA 25 mg/kg) | effect on DMXAA-induced serum TNF level ([2]; 20 mg/kg co-administered with DMXAA 25 mg/kg, FIG. 3A) | effect on DMXAA-induced tumour TNF level ([2]; 20 mg/kg co-administered with DMXAA 25 mg/kg, FIG. 3B) | inhibition of tube formation ([4]; 250 μg/ml, FIGS. 6 & 7) | inhibition at 2 µg/mL ([4]; Homo sapiens, ECV-304, lowest concentration tested, 2 μg/ml, FIG. 7) [%]
1 | NC(=O)CCC(C(=O)O)N1C(=O)c2ccccc2C1=O (stereo not shown) [PG, 5-Amino-2-(1,3-dioxo-1,3-dihydro-2H-isoindol-2-yl)-5-oxopentanoic acid] | no significant difference in tumour volumes | did not inhibit tumour growth above that of DMXAA alone | had no effect | had no effect | no significant effect | did not show any inhibition | No toxicity was observed |  |  |  |  |  |  |  | 
2 | Cc1ccc2c(=O)c3cccc(CC(=O)O)c3oc2c1C [DMXAA, 5,6-dimethylxanthenone-4-acetic acid, reference compound] |  |  |  |  |  |  |  | 20 | 50 |  |  |  |  |  | 
3 | NC(=O)C(CCC(=O)O)N1C(=O)c2ccccc2C1=O (stereo not shown) [PiG, 5-Amino-4-(1,3-dioxo-1,3-dihydro-2H-isoindol-2-yl)-5-oxopentanoic acid] | no significant difference in tumour volumes | did not inhibit tumour growth above that of DMXAA alone | had no effect | had no effect | no significant effect | did not show any inhibition | No toxicity was observed |  |  |  |  |  |  |  | 
4 | O=C1CCC(N2C(=O)c3ccccc3C2=O)C(=O)N1 (stereo not drawn) [thalidomide, α-phthalimidoglutarimide] | significantly smaller tumour volumes than those treated by DMXAA alone | greater inhibition of tumour growth than that of DMXAA alone | reduced DMXAA-induced TNF levels in serum | no significant effect | significantly decreased LPS-induced TNF levels in a dose-dependent manner |  | No toxicity was observed |  |  | neither CG nor thalidomide showed potentiation | no significant difference | reduced DMXAA-induced TNF levels in serum | no significant effect | Near complete inhibition | 38 to 41

Source: US20080167272A1, “Thalidomide metabolites and methods of use” (Auckland Uniservices Limited, priority 2005, published 2008)
